Values after ≈ are worked out from the molar mass of the structure shown. Like-named read-outs stand apart in the source and are kept apart here. Non-standard residues stand in square brackets, D forms with d. Residues, ends and D or L forms follow the SMILES beside them. d1Nal = N[C@H](Cc1cccc2ccccc12)C(=O)O
What was measured:
P. avidum = type: cell-based, Propionibacterium avidum
Procedure: This example addresses studies relating to the antimicrobial activities of XMP.629. An in vitro assessment of antibiotic activity in XMP.629 and various known antibiotics against a representative panel of bacterial strains associated with acne was conducted. A broth dilution methodology was employed using guidelines established by National Committee for Clinical Laboratory Standards (NCCLS) for anaerobic organisms to establish an antibacterial profile for XMP.629. Assays to determine the minimal bactericidal concentrations (MBC) and minimal inhibitory concentration (MIC) were conducted for XMP.629 and other known antibiotics. Furthermore, test to determine post antibiotic effect (PAE) of XMP.629 were done.
Inoculum from a representative panel of bacterial strains associated with acne, such as P. acnes, P. avidum, P. granulosum, and Staphylococcus epidermis was prepared by suspending approximately 5-10 isolated bacterial colonies in pre-reduced MicroScan® Inoculum Water (Dade Behring, Deerfield, Ill.), and growing the bacterial suspension to log phase (approximately 48 hrs). An inoculum of between 1-5×10^6/mL was achieved by adding 100 μL of the suspension to 25 mL Brain Heart Infusion Broth (BHI) (Anaerobe Systems, Morgan Hill, Calif.).
A stock solution of XMP.629 dissolved in water at a concentration of 4.0 mg/mL was prepared. Dilute solutions of XMP.629 at concentrations ranging from about 1.25 to about 160 μg/mL were made in either water or formulation buffer (130 mM sodium chloride, 0.2% P103 (poloxamer 333), and 0.10% EDTA, pH 7.3). Aqueous stock solutions of clindamycin and erythromycin were prepared in water.
Each tube, containing a final volume of 1 mL, was mixed by vortexing. Control tubes containing only water or formulation buffer were prepared for each isolate. Initial growth controls were determined by removing 10 μL from the water control tube and diluting it by 100 fold. From this dilution, 10 μL was used for inoculation and for spreading over the surface onto Laked Blood Agar (LBA) (Anaerobe Systems, Morgan Hill, Calif.) plates. The tubes and plates were incubated in an anaerobic atmosphere at 37° C. for 48 h. After incubation, the tubes were mixed and 10 μL samples were removed from each tube for additional plating. These plates were then further incubated in an anaerobic atmosphere at 37° C. for 48-72 h and the resulting colonies were counted. After adjusting for the dilution factor, the lowest concentration of drug or combination of drugs reducing the inoculum by ≧99.9% was considered to be the minimum bactericidal concentration (MBC). MBC50 and 90 values represent where 50 and 90%, respectively, of the tested strain's MBC values are equal to or less than the indicated concentration. The lowest concentration of antibiotic(s) that inhibited visible growth in the culture tubes was considered to be the minimal inhibitory concentration (MIC).
For comparison, additional Propionibacterium strains, were tested.

P. aeruginosa = type: cell-based, Pseudomonas aeruginosa
Procedure: Control tubes containing only water or formulation buffer were prepared for each isolate. Initial growth controls were determined by removing 10 μL from the water control tube and diluting it by 100 fold. From this dilution, 10 μL was used for inoculation and for spreading over the surface onto Laked Blood Agar (LBA) (Anaerobe Systems, Morgan Hill, Calif.) plates. The tubes and plates were incubated in an anaerobic atmosphere at 37° C. for 48 h. […] MBC50 and 90 values represent where 50 and 90%, respectively, of the tested strain's MBC values are equal to or less than the indicated concentration.
E. coli 07:K1 = assay: Acute peritonitis model (survival); type: in vivo, mice; conditions: 10 mg/kg intraperitoneally; 1.4×10^7 CFU E. coli 07:K1; seven days
Procedure: In additional studies in an acute peritonitis model, mice were challenged intraperitoneally with 1.4×10^7 CFU E. coli 07:K1 and treated intraperitoneally with XMP.629 at 1, 3, or 10 mg/kg or saline. Mice were observed twice daily and mortality was recorded for seven days. Statistical comparisons between the treatment groups and saline were performed using a Chi Square test. […] At 10 mg/kg, 87% protection was observed. In additional studies, XMP.629 was safely administered at a dose of 20 mg/kg intravenously.

protease = assay: Resistance to protease degradation
Procedure: In additional studies, a variety of formulations of XMP.629 were tested for stability under various temperatures, such as 25° C., 40° C., and 50° C., and at various time points, such as 0.5, 1, and 2 months.

[1] = system: intact and abraded skin of New Zealand White rabbits; assay: Rabbit primary skin irritation test (Draize); type: in vivo; conditions: 4 hour exposure
Procedure: XMP.629 was evaluated for any potential dermal irritant effects in the rabbit primary skin irritation test for this dermal irritation study, XMP.629 was tested on intact and abraded skin in three New Zealand White rabbits. All animals received 0.5 mL of XMP.629 on each intact and abraded dorsal skin application site. This was accomplished by placing a gauze patch directly on the skin of each application site and saturating the patch with 0.5 mL of the XMP.629 solution. The application sites were then wrapped with gauze bandaging and non-irritating semi-occlusive tape. Elizabethan collars were then applied for the 4 hour exposure period. At the end of the 4 hour exposure period, the collars and wrappings were removed and any residual XMP.629 removed. The test sites were evaluated using the standard Draize scoring system (Draize et al., 1944, J. Pharmacol, Exp. Ther. 82: 377-390) for erythema and edema within 30 to 60 minutes and 24, 48, and 72 hours following patch removal.

[2] = [3H]-labeled XMP.629, 0.3 mg/kg intravenous, estimate
in vivo = conditions: both, minipig, plasma, iv; for half-life: 0.05 or 2 mg/kg short IV infusion
[3] = RMA 8375, Formulation Buffer Solvent, Study 1
[4] = RMA 8375, Formulation Buffer Solvent, Study 2
[5] = RMA 8375, Water Solvent, Study 1
[6] = RMA 8375, Water Solvent, Study 2
[7] = RMA 8376, Formulation Buffer Solvent, Study 1
[8] = RMA 8376, Formulation Buffer Solvent, Study 2
[9] = RMA 8376, Water Solvent, Study 1
[10] = RMA 8376, Water Solvent, Study 2
[11] = RMA 9497, Formulation Buffer Solvent, Study 1
[12] = RMA 9497, Formulation Buffer Solvent, Study 2
[13] = RMA 9497, Water Solvent, Study 1
[14] = RMA 9497, Water Solvent, Study 2
[15] = RMA 13009, Formulation Buffer Solvent, Study 1
[16] = RMA 13009, Formulation Buffer Solvent, Study 2
[17] = RMA 13009, Water Solvent, Study 1
[18] = RMA 13009, Water Solvent, Study 2

SMILES: CC(C)C[C@@H](NC(=O)[C@H](N)CCCCN)C(=O)N[C@H](Cc1ccccc1)C(=O)N[C@H](CCCNC(=N)N)C(=O)N[C@H](Cc1cccc2ccccc12)C(=O)N[C@H](CCC(N)=O)C(=O)N[C@H](C)C(=O)N[C@H](CCCCN)C(=O)N[C@H](Cc1cccc2ccccc12)C(N)=O [XMP.629, NH2-lys-leu-phe-arg-(3-(1-naphthyl)-ala)-gln-ala-lys-(3-(1-naphthyl)-ala)-CONH2] (H-[dK][dL][dF][dR][d1Nal][dQ][dA][dK][d1Nal]-NH2)
- MBC50 (P. avidum; P. avidum, 4 strains): 1 µg/mL
- MBC90 (P. avidum; P. avidum, 4 strains): 2 µg/mL
- MBC Range (P. avidum; P. avidum, 4 strains, in µg/mL): 1-2
- MBC (P. avidum; [3]): 0.50 µg/mL
- MIC (P. avidum; [3]): 0.25 µg/mL
- MBC (P. avidum; [4]): 1 µg/mL
- MIC (P. avidum; [4]): 0.25 µg/mL
- MBC (P. avidum; [5]): 1 µg/mL
- MIC (P. avidum; [5]): 0.5 µg/mL
- MBC (P. avidum; [6]): 2 µg/mL
- MIC (P. avidum; [6]): 1 µg/mL
- MBC (P. avidum; [7]): 0.50 µg/mL
- MIC (P. avidum; [7]): 0.5 µg/mL
- MBC (P. avidum; [8]): 2 µg/mL
- MIC (P. avidum; [8]): 0.25 µg/mL
- MBC (P. avidum; [9]): 2 µg/mL
- MIC (P. avidum; [9]): 1 µg/mL
- MBC (P. avidum; [10]): 2 µg/mL
- MIC (P. avidum; [10]): 1 µg/mL
- MBC (P. avidum; [11]): 1 µg/mL
- MIC (P. avidum; [11]): 0.25 µg/mL
- MBC (P. avidum; [12]): 2 µg/mL
- MIC (P. avidum; [12]): 0.25 µg/mL
- MBC (P. avidum; [13]): 2 µg/mL
- MIC (P. avidum; [13]): 2 µg/mL
- MBC (P. avidum; [14]): 4 µg/mL
- MIC (P. avidum; [14]): 1 µg/mL
- MBC (P. avidum; [15]): 0.50 µg/mL
- MIC (P. avidum; [15]): 0.25 µg/mL
- MBC (P. avidum; [16]): 1 µg/mL
- MIC (P. avidum; [16]): 0.25 µg/mL
- MBC (P. avidum; [17]): 1 µg/mL
- MIC (P. avidum; [17]): 1 µg/mL
- MBC (P. avidum; [18]): 1 µg/mL
- MIC (P. avidum; [18]): 1 µg/mL
- MIC90, XMP.629 data reported as MBC values (P. aeruginosa): 32 µg/mL (≈ 24.9 µM)
- MIC90, XMP.629 data reported as MBC values (P. aeruginosa; in FB (formulation buffer)): 0.5 µg/mL (≈ 0.39 µM)
- protection (survival) (E. coli 07:K1): 87%
- protease degradation (protease): substantially resistant to protease degradation
- dermal irritation ([1]; abraded skin): only mildly irritating
- dermal irritation ([1]; intact skin): not irritating
- CL (clearance) ([2]; male Sprague-Dawley rats, three compartment model): 358.7 g plasma/hr/kg
- C0 (extrapolated plasma concentration at time 0) ([2]; rat): 2.49 μg equivalents/g
- Vc (volume of distribution of the central compartment) ([2]; rat): 0.121 L/kg
- Vss (volume of distribution at steady state) ([2]; rat): 1.657 L/kg
- t1/2 (average half-life) ([2]; rat): 0.23 h
- t1/2α (α half-life) ([2]; rat): 1.92 min
- t1/2β (β half-life) ([2]; rat): 0.77 h
- t1/2γ (γ half-life) ([2]; rat): 8.3 h
- Vd (in vivo; Sinclair mini-pig): 0.067 to 0.102 L/kg
- clearance (in vivo; Sinclair mini-pig): 1.75 to 2.6 mL/min/kg
- Vd (in vivo; Sinclair mini-pig, 0.05 mg/kg): 1.79 L/kg
- Vd (in vivo; Sinclair mini-pig, 0.2 mg/kg): 0.956 L/kg
- half-life (in vivo; Sinclair mini-pig, beta half-life): 1 to 1.3 h
- half-life (in vivo; Sinclair mini-pig, initial half-life): 0.03 to 0.9 h
- half-life (in vivo; Sinclair mini-pig, terminal half-life): ~15 h
- MRT (in vivo; Sinclair, 0.05 mg/kg): 11.3 h
- clearance (in vivo; Sinclair, 0.05 mg/kg): 2.59 mL/min/kg
- MRT (in vivo; Sinclair, 0.2 mg/kg): 7.41 h
- clearance (in vivo; Sinclair, 0.2 mg/kg): 1.74 mL/min/kg

From US20050148495A1, “Methods and materials including for treating acne” (priority 2003, published 2005)
